Assay results published in patent US9546164B2 (GENENTECH, INC., priority 2013, dated 2017).
Counter-ions that a name gives are not always drawn. Like-named read-outs stand apart in the source and are kept apart here.

Biological target: hNav1.7 (Homo sapiens (Human), UniProt Q15858)
Assay: Tritiated sulfonamide competitive binding to membranes from cells expressing hNav1.7 and the β1 subunit;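 further: Filter-bound radioactivity counted by liquid scintillation, nonspecific binding defined with excess unlabelled ligand, IC50 fitted to percent inhibition of specific binding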
[1] = read-out: Ligand Binding Assay, 100 pM [3H]compound, membranes with hNav1.7 and β1 subunit, 18 h, room temperature

hNav1.7, sequence (Q15858 other isoform, or with tags, fused parts or gaps): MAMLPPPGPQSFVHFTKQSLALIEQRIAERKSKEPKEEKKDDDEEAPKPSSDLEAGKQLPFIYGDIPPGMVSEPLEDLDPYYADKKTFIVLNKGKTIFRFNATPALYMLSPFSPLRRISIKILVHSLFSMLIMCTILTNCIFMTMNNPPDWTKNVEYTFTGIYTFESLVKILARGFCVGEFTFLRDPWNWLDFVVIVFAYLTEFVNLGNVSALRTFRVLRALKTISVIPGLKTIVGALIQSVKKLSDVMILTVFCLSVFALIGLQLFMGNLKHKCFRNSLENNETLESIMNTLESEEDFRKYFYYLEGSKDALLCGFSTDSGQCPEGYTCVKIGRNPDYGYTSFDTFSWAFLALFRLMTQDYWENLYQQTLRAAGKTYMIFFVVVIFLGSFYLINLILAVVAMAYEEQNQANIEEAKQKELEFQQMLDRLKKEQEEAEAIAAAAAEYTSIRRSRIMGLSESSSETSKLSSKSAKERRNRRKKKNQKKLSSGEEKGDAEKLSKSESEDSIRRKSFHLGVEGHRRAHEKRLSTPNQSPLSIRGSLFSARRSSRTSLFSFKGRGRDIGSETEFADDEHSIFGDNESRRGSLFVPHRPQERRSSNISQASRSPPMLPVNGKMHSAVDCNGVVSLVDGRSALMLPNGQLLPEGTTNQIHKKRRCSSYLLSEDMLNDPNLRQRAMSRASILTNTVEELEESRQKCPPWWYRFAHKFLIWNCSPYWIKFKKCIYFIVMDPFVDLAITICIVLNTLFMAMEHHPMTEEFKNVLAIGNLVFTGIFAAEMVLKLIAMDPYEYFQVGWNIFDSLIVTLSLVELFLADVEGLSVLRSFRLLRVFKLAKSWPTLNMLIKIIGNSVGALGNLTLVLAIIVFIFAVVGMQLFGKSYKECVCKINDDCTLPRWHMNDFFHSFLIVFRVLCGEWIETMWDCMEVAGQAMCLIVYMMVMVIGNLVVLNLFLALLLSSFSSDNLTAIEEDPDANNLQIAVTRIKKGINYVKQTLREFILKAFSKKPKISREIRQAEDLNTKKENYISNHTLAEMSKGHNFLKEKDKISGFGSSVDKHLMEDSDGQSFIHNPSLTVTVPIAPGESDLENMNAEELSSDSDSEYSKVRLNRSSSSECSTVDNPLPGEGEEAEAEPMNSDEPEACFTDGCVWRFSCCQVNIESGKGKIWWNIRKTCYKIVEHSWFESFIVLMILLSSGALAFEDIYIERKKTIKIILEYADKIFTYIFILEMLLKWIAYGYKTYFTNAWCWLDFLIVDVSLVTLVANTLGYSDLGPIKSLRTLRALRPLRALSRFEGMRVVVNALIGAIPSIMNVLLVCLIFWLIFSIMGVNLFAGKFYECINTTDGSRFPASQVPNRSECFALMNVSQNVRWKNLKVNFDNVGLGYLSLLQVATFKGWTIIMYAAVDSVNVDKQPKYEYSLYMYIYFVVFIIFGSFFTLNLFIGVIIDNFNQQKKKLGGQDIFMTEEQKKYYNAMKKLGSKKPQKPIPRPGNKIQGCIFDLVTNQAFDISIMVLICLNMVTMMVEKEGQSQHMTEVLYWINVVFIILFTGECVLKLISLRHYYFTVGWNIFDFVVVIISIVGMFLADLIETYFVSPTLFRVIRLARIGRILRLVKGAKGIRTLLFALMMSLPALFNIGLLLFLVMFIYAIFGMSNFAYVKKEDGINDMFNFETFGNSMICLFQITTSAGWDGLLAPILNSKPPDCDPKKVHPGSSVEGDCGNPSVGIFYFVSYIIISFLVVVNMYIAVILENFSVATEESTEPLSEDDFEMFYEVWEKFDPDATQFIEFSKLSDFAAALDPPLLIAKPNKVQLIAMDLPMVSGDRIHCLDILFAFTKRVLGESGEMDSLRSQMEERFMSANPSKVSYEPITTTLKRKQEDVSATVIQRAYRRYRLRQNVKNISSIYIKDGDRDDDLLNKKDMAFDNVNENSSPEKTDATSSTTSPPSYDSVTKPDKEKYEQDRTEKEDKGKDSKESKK
hNav1.7, sequence (Q07699 19-218 partner): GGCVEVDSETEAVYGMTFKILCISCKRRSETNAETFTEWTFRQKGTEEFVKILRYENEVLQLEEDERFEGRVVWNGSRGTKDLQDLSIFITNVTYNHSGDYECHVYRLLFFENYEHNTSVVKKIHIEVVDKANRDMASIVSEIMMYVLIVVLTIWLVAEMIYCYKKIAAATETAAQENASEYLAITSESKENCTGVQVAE

IC50 [1]	Structure (SMILES)	also measured
13.3 nM	Cc1cc(F)ccc1S(=O)(=O)N1CCC(COc2cc(F)c(C(=O)NS(=O)(=O)C3CC3)cc2C2CC2)CC1 [Example 387, 5-cyclopropyl-N-(cyclopropylsulfonyl)-2-fluoro-4-((1-((4-fluoro-2-methylphenyl)sulfonyl)piperidin-4-yl)methoxy)benzamide]	–
–	CS(=O)(=O)NC(=O)c1cc(C2CC2)c(CN2CCC(Oc3ccccc3C(F)(F)F)CC2)cc1F [Example 497, 5-cyclopropyl-2-fluoro-N-(methylsulfonyl)-4-((4-(2-(trifluoromethyl)phenoxy)piperidin-1-yl)methyl)benzamide]	IC50: 14.3 nM
1.6 nM	CS(=O)(=O)NC(=O)c1cc(C2CC2)c(OCC2CCN(C(c3ccc(F)cc3Cl)C(F)(F)F)CC2)cc1F (stereo not drawn) [Example 300, 4-((1-(1-(2-chloro-4-fluorophenyl)-2,2,2-trifluoroethyl)piperidin-4-yl)methoxy)-5-cyclopropyl-2-fluoro-N-(methylsulfonyl)benzamide]	–
25.1 nM	CS(=O)(=O)NC(=O)c1cc(C2CC2)c(OCC2CCN(S(=O)(=O)c3ccc(Br)c(F)c3)CC2)cc1F [Example 368, 4-((1-((4-bromo-3-fluorophenyl)sulfonyl)piperidin-4-yl)methoxy)-5-cyclopropyl-2-fluoro-N-(methylsulfonyl)benzamide]	–
49 nM	C[C@@H](c1cccc(F)c1)N1CCC(C)(COc2cc(F)c(C(=O)NS(C)(=O)=O)cc2C2CC2)CC1 (single isomer, unassigned) [Example 251]	–
3.4 nM	CS(=O)(=O)NC(=O)c1cc(C2CC2)c(O[C@@H]2CCCN(Cc3cccc(-c4ccccc4)c3)C2)cc1F [Example 443, (R)-4-((1-([1,1′-biphenyl]-3-ylmethyl)piperidin-3-yl)oxy)-5-cyclopropyl-2-fluoro-N-(methylsulfonyl)benzamide, trifluoroacetic acid salt]	–
1.9 nM	CCS(=O)(=O)NC(=O)c1cc(C2CC2)c(OCC2CCN(C(C)(C)c3cc(Cl)cc(Cl)c3)CC2)cc1F [Example 210, 5-Cyclopropyl-4-((1-(2-(3,5-dichlorophenyl)propan-2-yl)piperidin-4-yl)methoxy)-N-(ethylsulfonyl)-2-fluorobenzamide]	–
4.3 nM	O=C(NS(=O)(=O)C1CC1)c1cc(C2CC2)c(CN2CCO[C@H](Cc3ccc(F)cc3Cl)C2)cc1F [Example 467, (R)-4-((2-(2-chloro-4-fluorobenzyl)morpholino)methyl)-5-cyclopropyl-N-(cyclopropylsulfonyl)-2-fluorobenzamide, trifluoroacetic acid salt]	–
3.89 nM	C[C@H](c1cc(Cl)cc(Cl)c1)N1CCC(COc2cc(F)c(C(=O)NS(C)(=O)=O)cc2C2CC2)CC1 [Example 99, (R)-5-Cyclopropyl-4-((1-(1-(3,5-dichlorophenyl)ethyl)piperidin-4-yl)methoxy)-2-fluoro-N-(methylsulfonyl)-benzamide]	–
8.1 nM	CCS(=O)(=O)NC(=O)c1cc(C2CC2)c(OCC2CCN([C@H](c3cc(Cl)cc(Cl)c3)C(F)F)CC2)cc1F [Example 227, (R)-5-cyclopropyl-4-((1-(1-(3,5-dichlorophenyl)-2,2-difluoroethyl)piperidin-4-yl)methoxy)-N-(ethylsulfonyl)-2-fluorobenzamide]	–
–	CS(=O)(=O)NC(=O)c1cc(C2CC2)c(CN2[C@@H]3CC[C@H]2C[C@@H](Oc2ncc(C(F)(F)F)cc2Cl)C3)cc1F [Example 552, 4-(((1R,3r,5S)-3-((3-chloro-5-(trifluoromethyl)pyridin-2-yl)oxy)-8-azabicyclo[3.2.1]octan-8-yl)methyl)-5-cyclopropyl-2-fluoro-N-(methylsulfonyl)benzamide, trifluoroacetic acid salt]	IC50 (read-out: Ligand Binding Assay, 100 pM [3H]compound, membranes with hNav1.7 and β1 subunit, 18 h, room temperature, trifluoroacetic acid salt): 7 nM
–	Cc1ccc(CN2CCC[C@@H](Oc3cc(F)c(C(=O)NS(=O)(=O)N4CCC4)cc3C3CC3)C2)cc1 [Example 33, (R)—N-(azetidin-1-ylsulfonyl)-5-cyclopropyl-2-4-fluoro-((1-(4-methylbenzyl)piperidin-3-yl)oxy)benzamide]	IC50: 13.2 nM
51.9 nM	CS(=O)(=O)NC(=O)c1cc(C2CC2)c(O[C@@H]2CCCN(Cc3ccc4c(c3)OCCO4)C2)cc1F [Example 429, (R)-5-cyclopropyl-4-((1-((2,3-dihydrobenzo[b][1,4]dioxin-6-yl)methyl)piperidin-3-yl)oxy)-2-fluoro-N-(methylsulfonyl)benzamide, trifluoroacetic acid salt]	–
–	CS(=O)(=O)NC(=O)c1cc(C2CC2)c(CN2CCC(Oc3ccc(Cl)c(Cl)c3)CC2)cc1F [Example 509, 5-cyclopropyl-4-((4-(3,4-dichlorophenoxy)piperidin-1-yl)methyl)-2-fluoro-N-(methylsulfonyl)benzamide, trifluoroacetic acid salt)]	IC50: 13.1 nM
–	CS(=O)(=O)NC(=O)c1cc(C2CC2)c(CN2CCC(Oc3ccc(Cl)cc3Cl)CC2)cc1F [Example 546, 5-cyclopropyl-4-((4-(2,4-dichlorophenoxy)piperidin-1-yl)methyl)-2-fluoro-N-(methylsulfonyl)benzamide, trifluoroacetic acid salt]	IC50: 11.9 nM
–	C[C@H](c1cc(Cl)cc(Cl)c1)N1CCN(Cc2cc(F)c(C(=O)NS(C)(=O)=O)cc2C2CC2)C[C@@H]1C [Example 565, 5-cyclopropyl-4-(((S)-4-((R)-1-(3,5-dichlorophenyl)ethyl)-3-methylpiperazin-1-yl)methyl)-2-fluoro-N-(methylsulfonyl)benzamide]	IC50: 4.1 nM
5.2 nM	CC1(COc2cc(F)c(C(=O)NS(=O)(=O)C3CC3)cc2C2CC2)CN(c2ncc(Cl)cc2F)C1 [Example 483, 4-((1-(5-chloro-3-fluoropyridin-2-yl)-3-methylazetidin-3-yl)methoxy)-5-cyclopropyl-N-(cyclopropylsulfonyl)-2-fluorobenzamide]	–
11 nM	Cc1ccc(CN2CCC[C@@H](Oc3cc(F)c(C(=O)NS(C)(=O)=O)cc3C3CC3)C2)cc1C [Example 439, (R)-5-cyclopropyl-4-((1-(3,4-dimethylbenzyl)piperidin-3-yl)oxy)-2-fluoro-N-(methylsulfonyl)benzamide, trifluoracetic acid salt]	–
4.2 nM	O=C(NS(=O)(=O)C1CC1)c1cc(C2CC2)c(OCC2CCN(Cc3cc(C(F)(F)F)cc(Cl)c3F)CC2)cc1F [Example 582, 4-((1-(3-chloro-2-fluoro-5-(trifluoromethyl)benzyl)piperidin-4-yl)methoxy)-5-cyclopropyl-N-(cyclopropylsulfonyl)-2-fluorobenzamide]	–
1.3 nM	CS(=O)(=O)NC(=O)c1cc(C2CC2)c(O[C@@H]2CCCN(Cc3cc(Cl)cc(OC(F)(F)F)c3)C2)cc1F [Example 422, (R)-4-((1-(3-chloro-5-(trifluoromethoxy)benzyl)piperidin-3-yl)oxy)-5-cyclopropyl-2-fluoro-N-(methylsulfonyl)benzamide, trifluoroacetic acid salt]	–
21 nM	CC(c1ccc(OC(F)(F)F)cc1)N1CCC(COc2cc(F)c(C(=O)NS(C)(=O)=O)cc2C2CC2)CC1 (stereo not drawn) [Example 156]	–
3.3 nM	CCS(=O)(=O)NC(=O)c1cc(C2CC2)c(OCC2CCN([C@@H](C)c3ccc(Cl)cc3Cl)CC2)cc1F [Example 285, (S)-5-cyclopropyl-4-((1-(1-(2,4-dichlorophenyl)ethyl)piperidin-4-yl)methoxy)-N-(ethylsulfonyl)-2-fluorobenzamide]	–
3.2 nM	CS(=O)(=O)NC(=O)c1cc(C2CC2)c(OCC2CCN(C(c3ccc(F)cc3)c3ccc(F)cc3)CC2)cc1F [Example 418, 4-((1-(bis(4-fluorophenyl)methyl)piperidin-4-yl)methoxy)-5-cyclopropyl-2-fluoro-N-(methylsulfonyl)benzamide, trifluoroacetic acid salt]	–
–	CC(C)(C)N1CCC[C@@H](Oc2cc(F)c(C(=O)NS(=O)(=O)C3CC3)cc2C2CC2)C1 [Example 539, (R)-4-((1-(tert-butyl)piperidin-3-yl)oxy)-5-cyclopropyl-N-(cyclopropylsulfonyl)-2-fluorobenzamide]	IC50: 2280 nM
–	C[C@@H](c1cc(Cl)cc(Cl)c1)N1C[C@@H]2C[C@H]1CN2Cc1cc(F)c(C(=O)NS(=O)(=O)C2CC2)cc1C1CC1 [Example 564, 5-cyclopropyl-N-(cyclopropylsulfonyl)-4-(((1S,4S)-5-((S)-1-(3,5-dichlorophenyl)ethyl)-2,5-diazabicyclo[2.2.1]heptan-2-yl)methyl)-2-fluorobenzamide, trifluoroacetic acid salt]	IC50: 3.6 nM
68 nM	CS(=O)(=O)NC(=O)c1cc(C2CC2)c(OCC2CN(S(=O)(=O)c3cc(Cl)cc(Cl)c3)C2)cc1F [Example 274, 5-Cyclopropyl-4-((1-((3,5-dichlorophenyl)sulfonyl)azetidin-3-yl)methoxy)-2-fluoro-N-(methylsulfonyl)benzamide]	–
47 nM	CS(=O)(=O)NC(=O)c1cc(C2CC2)c(OCC2CCN([C@H](CO)c3cc(Cl)cc(Cl)c3)CC2)cc1F [Example 267, (S)-5-cyclopropyl-4-((1-(1-(3,5-dichlorophenyl)-2-hydroxyethyl)piperidin-4-yl)methoxy)-2-fluoro-N-(methylsulfonyl)benzamide]	–
11 nM	COC[C@@H](c1ccc(F)c(Cl)c1)N1CCC(COc2cc(F)c(C(=O)NS(C)(=O)=O)cc2C2CC2)CC1 (single isomer, unassigned) [Example 181]	–
3 nM	CS(=O)(=O)NC(=O)c1cc(C2CC2)c(OCC2CCN(C(c3ccc(F)c(Cl)c3)C(F)(F)F)CC2)cc1F (stereo not drawn) [Example 301, 4-((1-(1-(3-chloro-4-fluorophenyl)-2,2,2-trifluoroethyl)piperidin-4-yl)methoxy)-5-cyclopropyl-2-fluoro-N-(methylsulfonyl)benzamide]	–

Structure (SMILES)	IC50 [1]	also measured
CS(=O)(=O)NC(=O)c1cc(C2CC2)c(OCC2CC3CCC(C2)N3Cc2cc(Cl)cc(Cl)c2)cc1F [Example 449, 5-cyclopropyl-4-(((1R,3R,5S)-8-(3,5-dichlorobenzyl)-8-azabicyclo[3.2.1]octan-3-yl)methoxy)-2-fluoro-N-(methylsulfonyl)benzamide]	17.1 nM	–
